# Measurements taken from patent publication EP1175222B1, “MONTHLY DOSES OF GLYCOPEPTIDE ANTIBIOTICS FOR LONG-TERM PREVENTION OF STREPTOCOCCUS PNEUMONIAE INFECTIONS” (ELI LILLY AND COMPANY, priority 1999, dated 2000).
# Read-outs that look alike come from different tables or passages of the source.
# Columns and labels:
# [1] = test system: Streptococcus pneumoniae; assay: MIC90 by NCCLS broth microdilution against a worldwide collection of Streptococcus pneumoniae; assay type: cell-based
# Experimental: (§1) The term "MIC" or "minimum inhibitory concentration" refers to the lowest concentration of the agent that prevents visible growth after 18 to 24 hours of incubation. "MIC90" refers to the lowest concentration of the agent that prevents 90% growth after 18 to 24 hours of incubation. "MBC" or "minimal bactericidal concentration" refers to the lowest concentration that results in a 99.9% decline in bacterial numbers. Although the value of the MBC as a clinical test has not been established, it may be useful in special instances where very precise knowledge of the ability of a given antimicrobial agent to kill a specific clinical isolate is critical, as in the therapy of bacterial endocarditis.
# Table 1 lists the in vitro activity of N^DISACC-(4-(4-chlorophenyl)benzyl)A82846B and other compounds against a worldwide collection of Streptococcus pneumoniae. N^DISACC-(4-(4-chlorophenyl)benzyl)A82846B clearly demonstates a significant improvement against all three strains. […]
# MICs were determined using NCCLS broth microdilution methodology (see, Fasola E., Spangler SK., Ednie LM., Jacobs MR., Bajaksouzian S., and Appelbaum PC., "Comparative activities of LY 333328 against penicillin-susceptible and -resistant pneumococci" Antimicrobial Agents & Chemotherapy, 40(11), 2661-3 (1996)).
# [2] = test system: S aureus SA027; assay: Mouse protection model, intraperitoneal bacterial challenge; assay type: in vivo; conditions: mice; dose protecting 50% from lethal infection; two subcutaneous doses 1 and 5 hours after challenge
# Experimental: (§2) As listed in Table 2, N^DISACC-(4-(4-chlorophenyl)benzyl)A82846B appeared to have activity 30 to 40 times that of vancomycin when given subcutaneously to mice with systemic streptococcal or staphylococcal infections. […] In a murine model of systemic infection, various dosing regimens of N^DISACC-(4-(4-chlorophenyl)benzyl)A82846B administered subcutaneously were compared in animals inoculated intraperitoneally with either S pneumoniae or S aureus. The total dose ranged from 0.18 to 2.01 mg/kg body weight, subdivided into 1 to 24 doses during a 48-hour treatment period. Pharmacokinetic studies were performed in uninfected animals using a bioassay. Using multiple regression analysis to find the pharmacodynamic parameter associated with survival, time above the MIC appeared-to be more important (p<0.00001) than the maximum plasma concentration Cmax (p=0.01); however, for 1- and 2-dose regimens near the ED50, Cmax appeared to be the best predictor of outcome. A more detailed description of this study may be found in Knudsen, J., et al., "Pharmacodynamics of glycopeptides in Animal Models" Abstracts of the 20th International Congress of Chemotherapy, Abstract No. 4076, June (1997). […]
# [3] = test system: S pneumoniae Park I; assay: as above; assay type: in vivo; conditions: mice; dose protecting 50% from lethal infection; two subcutaneous doses 1 and 5 hours after challenge
# Experimental: as §2
# [4] = test system: S pyogenes C-203; assay: as above; assay type: in vivo; conditions: mice; dose protecting 50% from lethal infection; two subcutaneous doses 1 and 5 hours after challenge
# Experimental: as §2
# [5] = test system: penicillin-sensitive S. pneumoniae type 3 strain; assay: In-vivo rabbit model of S. pneumoniae meningitis (CSF measurements); conditions: rabbits
# Experimental: (§3) At 12 h after infection, they were treated with a single dose of N^DISACC-(4-(4-chlorophenyl)benzyl)A82846B [1 mg/kg (n = 5), 2.5 mg/kg (n = 5), 10 mg/kg (n = 10), […] (n = 2)] . N^DISACC-(4-(4-chlorophenyl)benzyl)A82846B was dissolved in 5% glucose and infused over 30 min. Controls received a bolus of ceftriaxone (20 mg/kg body weight) followed by a continuous infusion of 10 mg/kg/h (n = 12). The cerebrospinal fluid (CSF) was drawn at 12, 14, 17, 20, and 24h for the determination of bacterial titers, leukocyte densities, lipoteichoic/teichoic acid, lactate and protein concentrations. The concentration of the neuron-specific enolase in CSF was measured at 24h. Bactericidal activity in CSF was estimated by log-linear regression of bacterial titers versus time. Additionally, time-kill curves were performed with 10 mg/l N^DISACC-(4-(4-chlorophenyl)benzyl)A82846B.
# [6] = test system: S.pneumoniae; assay: In vitro time-kill curves; assay type: cell-based; conditions: 10 mg/l
# Experimental: as §3
# [7] = Safety and pharmacokinetics of single intravenous doses in eight healthy men; assay type: in vivo
# Experimental: An open-label, uncontrolled, dose-escalation study was conducted with eight healthy men. All subjects were between 22 and 50 years of age and within 10% of their ideal body weights. Single does, ranging from 0.5 mg/kg body weight to 3 mg/kg body weight, were administered intravenously over 30 minutes. Plasma samples were collected just prior to the start of infusion and at intervals for 336 hours after the end of the infusion for assessment of drug concentration, biochemical and hematologic parameters. N^DISACC-(4-(4-chlorophenyl)benzyl) A82846B plasma and urine concentrations were determined by HPLC and competitive binding radioimmunoassay, respectively. Individual plasma concentration-time profiles were evaluated based on compartmental analysis techniques.
# [8] = set-up: species or system rats; conditions: rat, in vivo, 5 mg/kg
# From the text: Although single doses of N^DISACC-(4-(4-chlorophenyl)benzyl)A82846B may provide high plasma concentrations for a prolonged period of time, it may also be highly desirable to maintain high concentrations in respiratory tissues (the main portal of initial tissue infection and invasion).
# [9] = test system: penicillin-sensitive S. pneumoniae type 3 strain; assay: MIC and MBC for the meningitis model strain; assay type: cell-based; conditions: penicillin-sensitive type 3 strain
# Experimental: as §1
# as §3, with “Bactericidal activity in CSF was estimated by log-linear regression of bacterial titers versus time. Additionally, time-kill curves were performed with 10 mg/l N^DISACC-(4-(4-chlorophenyl)benzyl)A82846B.” left out
# [10] = test system: S. pneumoniae; assay: Neutropenic model of S. pneumoniae bacteremia in mice; assay type: in vivo; conditions: subcutaneously or intravenously at doses ≥ 5 mg/kg body weight
# [11] = set-up: species or system mice; conditions: mouse, in vivo, sc
# Experimental: as §2
# [12] = Intermediate N = 40 (penicillin-intermediate by NCCLS criteria)
# [13] = Resistant N = 42 (penicillin-resistant by NCCLS criteria)
# [14] = Streptococcus pneumoniae, Intermediate N = 40 (penicillin-intermediate by NCCLS criteria), read-out: MIC90
# [15] = Streptococcus pneumoniae, Resistant N = 42 (penicillin-resistant by NCCLS criteria), read-out: MIC90
# [16] = Streptococcus pneumoniae, Sensitive N = 50 (penicillin-sensitive by NCCLS criteria), read-out: MIC90
# [17] = Sensitive N = 50 (penicillin-sensitive by NCCLS criteria)
# [18] = healthy men, single i.v. dose 0.5 to 3 mg/kg over 30 minutes
# [19] = healthy men, single i.v. dose 0.5 to 3 mg/kg over 30 minutes, normalized to dose and weight
# [20] = estimated by Lineweaver-Burk plot
compound,measurement,setting,value
CN[C@H](CC(C)C)C(=O)N[C@H]1C(=O)N[C@@H](CC(N)=O)C(=O)N[C@H]2C(=O)N[C@H]3C(=O)N[C@H](C(=O)N[C@H](C(=O)O)c4cc(O)cc(O)c4-c4cc3ccc4O)[C@H](O)c3ccc(c(Cl)c3)Oc3cc2cc(c3O[C@@H]2O[C@H](CO)[C@@H](O)[C@H](O)[C@H]2O[C@H]2C[C@](C)(N)[C@H](O)[C@H](C)O2)Oc2ccc(cc2Cl)[C@H]1O [Vancomycin],MIC90,[1]; [12],0.5 µg/mL
same,MIC90,[1]; [13],0.5 µg/mL
same,MIC90,[1]; Streptococcus pneumoniae,0.5 µg/mL
same,ED50,[2],0.70 mg/kg/dose
same,ED50,[3],1-1 mg/kg/dose
same,ED50,[4],0.80 mg/kg/dose
CO/N=C(\C(=O)N[C@@H]1C(=O)N2C(C(=O)O)=C(CSc3nc(=O)c(=O)[nH]n3C)CS[C@H]12)c1csc(N)n1 [Ceftriaxone],MIC90,[1]; [14],0.5 µg/mL
same,MIC90,[1]; [15],2 µg/mL
same,MIC90,[1]; [16],0.06 µg/mL
same,"bactericidal activity in CSF, Δlog CFU/ml/h ± SD",[5]; bolus 20 mg/kg body weight then continuous infusion of 10 mg/kg/h,-0.33 ± 0.15 Δlog CFU/ml/h
same,time until S.pneumoniae killed / cultures sterile,[6],12 h
CC1(C)S[C@@H]2[C@H](NC(=O)Cc3ccccc3)C(=O)N2[C@H]1C(=O)O [Penicillin G],MIC90,[1]; [12],1.0 µg/mL
same,MIC90,[1]; [13],4.0 µg/mL
same,MIC90,[1]; [17],0.06 µg/mL
Teicoplanin,MIC90,[1]; [12],0.06 µg/mL
same,MIC90,[1]; [13],0.06 µg/mL
same,MIC90,[1]; [17],0.06 µg/mL
CN[C@H](CC(C)C)C(=O)N[C@H]1C(=O)N[C@@H](CC(N)=O)C(=O)N[C@H]2C(=O)N[C@H]3C(=O)N[C@H](C(=O)N[C@H](C(=O)O)c4cc(O)cc(O)c4-c4cc3ccc4O)[C@H](O[C@H]3C[C@](C)(N)[C@@H](O)[C@H](C)O3)c3ccc(c(Cl)c3)Oc3cc2cc(c3O[C@@H]2O[C@H](CO)[C@@H](O)[C@H](O)[C@H]2O[C@H]2C[C@](C)(N)[C@@H](O)[C@H](C)O2)Oc2ccc(cc2Cl)[C@H]1O [A82846B],ED50,[3],0.18 mg/kg/dose
same,ED50,[4],0.18 mg/kg/dose
N^DISACC-(4-(4-chlorophenyl)benzyl)A82846B Diphosphate,"% dose excreted in urine, Mean (%CV)",[7]; [18],3.1 (42) %
same,"T1/2, Mean (%CV)",[7]; [18],251 (96) hr
same,"AUC0-∞, Mean (%CV)",[7]; [19],201 (62) (µg hr/ml)/(mg/kg)
same,"Cmax, Mean (%CV)",[7]; [19],16.5 (20) (µg/ml)/(mg/kg)
same,"Clp, Mean (%CV)","[7]; healthy men, single i.v. dose 0.5 to 3 mg/kg over 30 minutes, plasma clearance",0.0896 (30) ml/min/kg
same,"Vss, Mean (%CV)","[7]; healthy men, single i.v. dose 0.5 to 3 mg/kg over 30 minutes, steady-state volume of distribution",1.08 (45) 1/kg
C[C@@H](O)[C@H]1C(=O)N2C(C(=O)O)=C(SCCN=CN)C[C@H]12 [Imipenem],MIC90,[1]; [14],0.125 µg/mL
same,MIC90,[1]; [15],0.5 µg/mL
same,MIC90,[1]; [16],0.03 µg/mL
N^DISACC-(4-(4-chlorophenyl)benzyl)A82846B,MIC90,[1]; [12],0.015 µg/mL
same,MIC90,[1]; [13],0.03 µg/mL
same,MIC90,[1]; [17],0.008 µg/mL
same,ED50,[2],0.009 mg/kg/dose
same,ED50,[3],0.028 mg/kg/dose
same,ED50,[4],0.045 mg/kg/dose
same,lung tissue half life,[8],29 days
same,mean concentration of the neuron-specific enolase in CSF at 24h,"[5]; 10 mg/kg body weight, parameter of neuronal damage, p = 0.14 vs ceftriaxone",92.3 ± 68.7
same,half-maximal dose (KD),[5]; [20],5.3 mg/kg body weight
same,maximum bactericidal rate (Emax),[5]; [20],-0.88 Δlog CFU/ml/h
same,"bactericidal activity in CSF, Δlog CFU/ml/h ± SD",[5]; single dose of 1 mg/kg body weight (only bacteriostatic),0.01 ± 0.11 Δlog CFU/ml/h
same,"bactericidal activity in CSF, Δlog CFU/ml/h ± SD",[5]; single dose of 2.5 mg/kg,-0.26 ± 0.22 Δlog CFU/ml/h
same,"bactericidal activity in CSF, Δlog CFU/ml/h ± SD",[5]; single dose of 10 mg/kg body weight 12 h after infection,-0.29 ± 0.21 Δlog CFU/ml/h
same,"Protein, lactate and lipoteichoic/teichoic acid concentrations in CSF",[5]; single dose of 10 mg/kg body weight compared with ceftriaxone 10 mg/kg/h,no significant differences
same,"bactericidal activity in CSF, Δlog CFU/ml/h",[5]; single dose of 40 mg/kg,-0.52 ± 0.02 Δlog CFU/ml/h
same,MBC,[9],0.03 µg/mL
same,MIC,[9],0.015 µg/mL
same,terminal t1/2,"[7]; healthy men, single i.v. doses, to be interpreted cautiously",10.5 days
same,area under the terminal phase as share of total AUC0-∞,"[7]; human, in vivo, iv",approximately 50%
same,effect on bacteremia,[10],eliminated bacteremia
same,absorption following subcutaneous administration,[11],absorbed poorly
same,time until S.pneumoniae killed / cultures sterile,[6],≤ 1 h
CO[C@H]1/C=C/O[C@@]2(C)Oc3c(C)c(O)c4c(O)c(c(/C=N/N5CCN(C)CC5)c(O)c4c3C2=O)NC(=O)/C(C)=C\C=C\[C@H](C)[C@H](O)[C@@H](C)[C@@H](O)[C@@H](C)[C@H](OC(C)=O)[C@@H]1C [Rifampin],MIC90,[1]; [14],0.015 µg/mL
same,MIC90,[1]; [15],> 8 µg/mL
same,MIC90,[1]; [16],0.03 µg/mL
